Measurements taken from patent US7790921B2 (Biolink Life Sciences, Inc., priority 2007, dated 2010).
“Also recorded” adds a separate entry of the source. Read-outs that look alike come from different tables or passages of the source.

Key:
[1] = Solubility in simulated gastric fluid USP; type: physicochemical
[2] = Solubility in simulated intestinal fluid USP; type: physicochemical
[3] = Hygroscopicity and storage stability of the solid; type: physicochemical
Solubility in methanol = conditions: product of Examples 2 and 3
[4] = Solubility of lithium valproate in water / aqueous solutions
[5] = literature; cited from earlier work
[6] = tested on: patients with major depressive illness, bipolar disorder, or schizoaffective disorder; conditions: cited from earlier work
HIV-infected individuals = conditions: 250 mg twice daily, 10 weeks; cited from earlier work
deacetylase = conditions: dose between 20 and 40 mg/kg, patients with cervical cancer; cited from earlier work
[7] = mean duration of at least 1 year of administration

CCCC(CCC)C(=O)[O-].[Li+] [lithium valproate]
solubility in simulated gastric fluid USP [1]: soluble | solubility in simulated intestinal fluid USP [2]: soluble | hygroscopicity [3]: not hygroscopic or deliquescent; also recorded: non-hygroscopic | stability during storage [3]: stable during storage | solubility in methanol (Solubility in methanol): very soluble | solubility of lithium valproate in water ([4]; portions added to 1 mL water until undissolved): about 250 mg of lithium valproate per mL of water | solubility in water ([4]; product of Examples 2 and 3): very soluble | pH of aqueous solutions ([4]; water or aqueous solutions): near neutral pH

CCCC(CCC)C(=O)O [Valproic acid, 2-propylpentanoic acid]
solubility in water [5]: very slightly soluble | mean change in GAS ratings ([6]; bipolar and schizoaffective patients, average of 11 to 14 months of treatment): 35.0 | patients with improved mean GAS scores, bipolar disorder [6, 7]: 12 of 12 | patients with improved mean GAS scores, depressed patients [6, 7]: 7 of 9 | patients with improved mean GAS scores, schizoaffective states [6, 7]: 11 of 14 | safety and tolerability (HIV-infected individuals): safe and well tolerated

2-propylpentanoic acid magnesium salt [magnesium valproate]
effect on deacetylase activity in tumor tissues (deacetylase): inhibits deacetylase activity

CCCC(CCC)C(=O)O [divalproex sodium]
hygroscopicity [5]: not hygroscopic

CCCC(CCC)C(=O)[O-].[Na+] [Sodium valproate]
hygroscopicity [5]: hygroscopic
